In patent US6875451B2, “Compositions and methods for the treatment of primary and metastatic neoplastic diseases using arsenic compounds” (PolaRx Biopharmaceuticals Inc., priority 1997, dated 2005):
Like-named read-outs stand apart in the source and are kept apart here.

Key:
Assay type in all cases: cell-based
HL-60(TB) = details: 2 days
NCI-H460 = test: SRB growth assay, 2 days exposure, non-small cell lung cancer
Protocol: (§1) Arsenic trioxide (1 mg/ml, 10 mg/ampoule, manufactured by Taylor Pharmaceuticals, Decatur, Ill.) was tested at five concentrations each at 10-fold dilutions, i.e., 10^−5, 10^−6, 10^−7, 10^−8 and 10^−9 μg/ml.
(§2) The in vitro tests were performed by incubating the test cells in the presence of the indicated concentration of arsenic trioxide under standard culture conditions for a designated period of time, which is followed by a sulforhodamine B (SRB) protein assay to estimate cell viability or growth. The cell lines are organized into subpanels according to the origin of the cell lines, e.g., leukemia, breast cancer, etc. A description of the cell lines and method of testing is described in Monk et al. (1997, Anticancer Drug Des. 12:533-41) and Weinstein et al., (1997, Science 275:343-9), which are incorporated herein in their entirety.
(§3) The measurement of an effect is expressed in Percentage Growth (PG). The measured effect of the compound on a cell line is calculated according to one or the other of the following two expressions: If (Mean ODtest−Mean ODzero)≧0. then PG=100×(Mean ODtest−Mean ODzero)/(Mean ODctrl−Mean ODzero) If (Mean ODtest−Mean ODzero)<0. then PG=100×(Mean ODtest−Mean ODzero)/(Mean ODzero where: • Mean ODzero=the average of optical density measurements of SRB-derived color just before exposure of cells to the test compounds; • Mean ODtest=the average of optical density measurements of SRB-derived color after exposure of cells to the test compound for a designated period of time; and • Mean ODctrl=the average of optical density measurements of SRB-derived color after with no exposure of cells to the test compound for a designated period of time
(§4) The first two columns describe the subpanel (e.g., leukemia) and cell line (e.g., CCRF-CEM) involved. The next two columns list the Mean ODzero and Mean ODctrl; the next five columns list the Mean ODtest for each of five different concentrations. Each concentration is expressed as the log10 (molar or μg/ml). The next five columns list the calculated PGs for each concentration. The response parameters GI50, TGI and LC50 are interpolated values representing the concentrations at which the PG is +50, 0, and −50, respectively. Sometimes these response parameters cannot be obtained by interpolation. If, for instance, all of the PGs in a given row exceed +50, then none of the three parameters can be obtained by interpolation. In such a case, the value given for each response parameter is the highest concentration tested and is preceded by a “>” sign. This practice is extended similarly to the other possible situations where a response parameter cannot be obtained by interpolation.
(§5) In the first set, the cells from 56 different cancer cell lines were exposed to five concentrations of arsenic trioxide continuously for two days prior to performing the SRB assay. In the second set, the cells from 50 different cell lines (a subset of the first 56 cell lines, plus the renal cancer cell line 786-0) were exposed continuously for six days prior to the SRB assay.

HOP-92 = test: as above
Protocol: as §1, §2, §3, §4, §5

NCI-H226 = test: as above
Protocol: as §1, §2, §3, §4, §5

NCI-H522 = test: as above
Protocol: as §1, §2, §3, §4, §5

SR = test: SRB growth assay, 2 days exposure, leukemia
Protocol: as §1, §2, §3, §4, §5

RPMI-8226 = test: SRB growth assay, 2 days exposure, leukemia
Protocol: as §1, §2, §3, §4, §5

CCRF-CEM = test: SRB growth assay, 2 days exposure, leukemia
Protocol: as §1, §2, §3, §4, §5

K-562 = test: SRB growth assay, 2 days exposure, leukemia
Protocol: as §1, §2, §3, §4, §5

MOLT-4 = test: SRB growth assay, 2 days exposure, leukemia
Protocol: as §1, §2, §3, §4, §5

[1] = tested on: 56 different cancer cell lines; test: NCI cancer cell line panel, SRB assay, first set, 2 days exposure (whole panel, mean graph)
Protocol: as §1, §2, §3
The first two columns describe the subpanel (e.g., leukemia) and cell line (e.g., CCRF-CEM) involved. The next two columns list the Mean ODzero and Mean ODctrl; the next five columns list the Mean ODtest for each of five different concentrations. Each concentration is expressed as the log10 (molar or μg/ml). The next five columns list the calculated PGs for each concentration. […]

Substance: arsenic trioxide
- TGI (HL-60(TB)): 0.0103 ng/mL
- Percent Growth (HL-60(TB); log10 conc −4.9): −9%
- Percent Growth (HL-60(TB); log10 conc −5.9): 90%
- Percent Growth (HL-60(TB); log10 conc −6.9): 102%
- Percent Growth (HL-60(TB); log10 conc −7.9): 92%
- Percent Growth (HL-60(TB); log10 conc −8.9): 101%
- TGI (NCI-H460): >0.0126 ng/mL
- Percent Growth (NCI-H460; log10 conc −4.9): 49%
- Percent Growth (NCI-H460; log10 conc −5.9): 92%
- Percent Growth (NCI-H460; log10 conc −6.9): 100%
- Percent Growth (NCI-H460; log10 conc −7.9): 95%
- Percent Growth (NCI-H460; log10 conc −8.9): 89%
- TGI (HOP-92): >0.0126 ng/mL
- Percent Growth (HOP-92; log10 conc −4.9): 31%
- Percent Growth (HOP-92; log10 conc −5.9): 74%
- Percent Growth (HOP-92; log10 conc −6.9): 82%
- Percent Growth (HOP-92; log10 conc −7.9): 92%
- Percent Growth (HOP-92; log10 conc −8.9): 88%
- TGI (NCI-H226): >0.0126 ng/mL
- Percent Growth (NCI-H226; log10 conc −4.9): 92%
- Percent Growth (NCI-H226; log10 conc −5.9): 109%
- Percent Growth (NCI-H226; log10 conc −6.9): 109%
- Percent Growth (NCI-H226; log10 conc −7.9): 96%
- Percent Growth (NCI-H226; log10 conc −8.9): 109%
- TGI (NCI-H522): 0.00708 ng/mL
- Percent Growth (NCI-H522; log10 conc −4.9): −21%
- Percent Growth (NCI-H522; log10 conc −5.9): 63%
- Percent Growth (NCI-H522; log10 conc −6.9): 108%
- Percent Growth (NCI-H522; log10 conc −7.9): 100%
- Percent Growth (NCI-H522; log10 conc −8.9): 129%
- TGI (SR): 0.00585 ng/mL
- Percent Growth (SR; log10 conc −4.9): −30%
- Percent Growth (SR; log10 conc −5.9): 60%
- Percent Growth (SR; log10 conc −6.9): 100%
- Percent Growth (SR; log10 conc −7.9): 89%
- Percent Growth (SR; log10 conc −8.9): 99%
- TGI (RPMI-8226): 0.00723 ng/mL
- Percent Growth (RPMI-8226; log10 conc −4.9): −21%
- Percent Growth (RPMI-8226; log10 conc −5.9): 65%
- Percent Growth (RPMI-8226; log10 conc −6.9): 87%
- Percent Growth (RPMI-8226; log10 conc −7.9): 93%
- Percent Growth (RPMI-8226; log10 conc −8.9): 96%
- TGI (CCRF-CEM): 0.01 ng/mL
- Percent Growth (CCRF-CEM; log10 conc −4.9): −5%
- Percent Growth (CCRF-CEM; log10 conc −5.9): 47%
- Percent Growth (CCRF-CEM; log10 conc −6.9): 98%
- Percent Growth (CCRF-CEM; log10 conc −7.9): 105%
- Percent Growth (CCRF-CEM; log10 conc −8.9): 106%
- TGI (K-562): 0.011 ng/mL
- Percent Growth (K-562; log10 conc −4.9): −5%
- Percent Growth (K-562; log10 conc −5.9): 76%
- Percent Growth (K-562; log10 conc −6.9): 100%
- Percent Growth (K-562; log10 conc −7.9): 101%
- Percent Growth (K-562; log10 conc −8.9): 98%
- TGI (MOLT-4): >0.0126 ng/mL
- Percent Growth (MOLT-4; log10 conc −4.9): 4%
- Percent Growth (MOLT-4; log10 conc −5.9): 77%
- Percent Growth (MOLT-4; log10 conc −6.9): 105%
- Percent Growth (MOLT-4; log10 conc −7.9): 105%
- Percent Growth (MOLT-4; log10 conc −8.9): 109%
- reducing cell growth ([1]; first set of tests, 2 days exposure, all cell lines tested): effective in reducing cell growth against almost all the cell lines tested
- reduction of growth ([1]; leukemic, melanoma and ovarian cancer cell lines, 2 days exposure): more than 50%
- sensitivity relative to all the cell lines tested (mean graph, FIG. 2) ([1]; most leukemic and melanoma cell lines, SNB-75, U251, PC-3, A498, CAKI-1, SN12C, NCI-H522, 2 days): especially sensitive
